Measurements: patent US10473647B1, “Peptides for use in treatment and diagnosis of type 1 diabetes” (ImmusanT, Inc., priority 2014, dated 2019)

Experiments:
Assay type in all cases: cell-based, human
[1] = test system: whole blood from subjects with T1D and Celiac disease; experiment: Whole blood cytokine release assay, IP-10 (MAGPIX), Example 1; conditions: individual 17mer 20 μg/mL, blood 6 days after commencing oral gluten challenge; for subjects with elevated whole blood IP-10 release (2-fold greater than medium alone): four subjects
[2] = test system: whole blood from subjects with T1D and Celiac disease; experiment: Whole blood cytokine release assay, IL-2 (MAGPIX), Example 1; conditions: individual 17mer 20 μg/mL, blood 6 days after commencing oral gluten challenge
[3] = test system: whole blood from subjects with T1D and Celiac disease; experiment: Whole blood cytokine release assay, IFN-γ (MAGPIX), Example 1; conditions: individual 17mer 20 μg/mL, blood 6 days after commencing oral gluten challenge

In the case of 64 (MNILLEYVVKSFDRSTK) [compound 64], the “IP-10 fold-change (GAD65 peptides)” value ([1]; Subject 1) is reported as 1.95 fold, the “IP-10 fold-change (GAD65 peptides)” value ([1]; Subject 2) is reported as 4.08 fold and the “IP-10 fold-change (GAD65 peptides)” value ([1]; Subject 6) is reported as 2.16 fold. For the same substance, the “IP-10 fold-change (GAD65 peptides)” value ([1]; Subject 7) was 0.84 fold, the “IL-2 fold-change (GAD65 peptides)” value ([2]; Subject 1) was 1.00 fold and the “IL-2 fold-change (GAD65 peptides)” value ([2]; Subject 2) was 1.00 fold. The “IL-2 fold-change (GAD65 peptides)” value ([2]; Subject 6) was 0.85 fold, the “IL-2 fold-change (GAD65 peptides)” value ([2]; Subject 7) was 0.36 fold and the “IFN-g fold-change (GAD65 peptides)” value ([3]; Subject 1) was 0.90 fold. The “IFN-g fold-change (GAD65 peptides)” value ([3]; Subject 2) was 1.49 fold, the “IFN-g fold-change (GAD65 peptides)” value ([3]; Subject 6) was 0.90 fold and the “IFN-g fold-change (GAD65 peptides)” value ([3]; Subject 7) was 0.57 fold.

WESGCTVIVMLTPLVED [SEQ ID NO: 67] was tested, and the “subjects with elevated whole blood IP-10 release (2-fold greater than medium alone)” value [1] was “Only Subject 7 responded”, the “subjects with elevated whole blood IL-2 release” value ([2]; four subjects) was “Only Subject 7 responded” and the “subjects with elevated whole blood IFN-γ release” value ([3]; four subjects) was “Only Subject 7 responded”.

In the case of 59 (RPTLAFLQDVMNILLQY) [compound 59], the “IP-10 fold-change (GAD65 peptides)” value ([1]; Subject 1) is reported as 3.22 fold, the “IP-10 fold-change (GAD65 peptides)” value ([1]; Subject 2) is reported as 2.10 fold and the “IP-10 fold-change (GAD65 peptides)” value ([1]; Subject 6) is reported as 2.62 fold. For the same substance, the “IP-10 fold-change (GAD65 peptides)” value ([1]; Subject 7) was 1.05 fold, the “IL-2 fold-change (GAD65 peptides)” value ([2]; Subject 1) was 1.00 fold and the “IL-2 fold-change (GAD65 peptides)” value ([2]; Subject 2) was 1.00 fold. For the same substance, the “IL-2 fold-change (GAD65 peptides)” value ([2]; Subject 6) was 1.54 fold, the “IL-2 fold-change (GAD65 peptides)” value ([2]; Subject 7) was 0.58 fold and the “IFN-g fold-change (GAD65 peptides)” value ([3]; Subject 1) was 0.84 fold. The “IFN-g fold-change (GAD65 peptides)” value ([3]; Subject 2) was 1.32 fold, the “IFN-g fold-change (GAD65 peptides)” value ([3]; Subject 6) was 0.71 fold and the “IFN-g fold-change (GAD65 peptides)” value ([3]; Subject 7) was 0.76 fold.

PKTRREAEVGQVELGGG [SEQ ID NO: 52] was tested, and the IP-10 fold-change ([1]; Subject 1) was 1.08, the “IP-10 fold-change (preproinsulin peptides)” value ([1]; Subject 1) was 1.08 fold and the IP-10 fold-change ([1]; Subject 2) was 1.56. For the same substance, the “IP-10 fold-change (preproinsulin peptides)” value ([1]; Subject 2) was 1.56 fold, the IP-10 fold-change ([1]; Subject 6) was 3.69 and the “IP-10 fold-change (preproinsulin peptides)” value ([1]; Subject 6) was 3.69 fold. For the same substance, the IP-10 fold-change ([1]; Subject 7) was 0.97, the “IP-10 fold-change (preproinsulin peptides)” value ([1]; Subject 7) was 0.97 fold and the IL-2 fold-change ([2]; Subject 1) was 1.00. For the same substance, the “IL-2 fold-change (preproinsulin peptides)” value ([2]; Subject 1) was 1.00 fold, the IL-2 fold-change ([2]; Subject 2) was 1.00 and the “IL-2 fold-change (preproinsulin peptides)” value ([2]; Subject 2) was 1.00 fold. The IL-2 fold-change ([2]; Subject 6) was 1.00, the “IL-2 fold-change (preproinsulin peptides)” value ([2]; Subject 6) was 1.00 fold and the IL-2 fold-change ([2]; Subject 7) was 0.21. The “IL-2 fold-change (preproinsulin peptides)” value ([2]; Subject 7) was 0.21 fold, the IFN-g fold-change ([3]; Subject 1) was 1.07 and the “IFN-g fold-change (preproinsulin peptides)” value ([3]; Subject 1) was 1.07 fold. For the same substance, the IFN-g fold-change ([3]; Subject 2) was 1.08, the “IFN-g fold-change (preproinsulin peptides)” value ([3]; Subject 2) was 1.08 fold and the IFN-g fold-change ([3]; Subject 6) was 0.81. The “IFN-g fold-change (preproinsulin peptides)” value ([3]; Subject 6) was 0.81 fold, the IFN-g fold-change ([3]; Subject 7) was 0.52 and the “IFN-g fold-change (preproinsulin peptides)” value ([3]; Subject 7) was 0.52 fold.

With CGSHLVEALYLVCGERG [SEQ ID NO: 53] the IP-10 fold-change ([1]; Subject 1) was 1.13, the “IP-10 fold-change (preproinsulin peptides)” value ([1]; Subject 1) was 1.13 fold and the IP-10 fold-change ([1]; Subject 2) was 1.50. The “IP-10 fold-change (preproinsulin peptides)” value ([1]; Subject 2) was 1.50 fold, the IP-10 fold-change ([1]; Subject 6) was 3.30 and the “IP-10 fold-change (preproinsulin peptides)” value ([1]; Subject 6) was 3.30 fold. For the same substance, the IP-10 fold-change ([1]; Subject 7) was 0.83, the “IP-10 fold-change (preproinsulin peptides)” value ([1]; Subject 7) was 0.83 fold and the “subjects with elevated whole blood IP-10 release (2-fold greater than medium alone)” value [1] was “more weakly”. The IL-2 fold-change ([2]; Subject 1) was 1.00, the “IL-2 fold-change (preproinsulin peptides)” value ([2]; Subject 1) was 1.00 fold and the IL-2 fold-change ([2]; Subject 2) was 1.00. The “IL-2 fold-change (preproinsulin peptides)” value ([2]; Subject 2) was 1.00 fold, the IL-2 fold-change ([2]; Subject 6) was 1.08 and the “IL-2 fold-change (preproinsulin peptides)” value ([2]; Subject 6) was 1.08 fold. The IL-2 fold-change ([2]; Subject 7) was 0.56, the “IL-2 fold-change (preproinsulin peptides)” value ([2]; Subject 7) was 0.56 fold and the IFN-g fold-change ([3]; Subject 1) was 0.99. The “IFN-g fold-change (preproinsulin peptides)” value ([3]; Subject 1) was 0.99 fold, the IFN-g fold-change ([3]; Subject 2) was 1.01 and the “IFN-g fold-change (preproinsulin peptides)” value ([3]; Subject 2) was 1.01 fold. For the same substance, the IFN-g fold-change ([3]; Subject 6) was 0.74, the “IFN-g fold-change (preproinsulin peptides)” value ([3]; Subject 6) was 0.74 fold and the IFN-g fold-change ([3]; Subject 7) was 0.69. For the same substance, the “IFN-g fold-change (preproinsulin peptides)” value ([3]; Subject 7) was 0.69 fold.
